For series [1], the system named is PD1-ss+10aa/Gaussia Luciferase. The series is described as follows: Dox-Induced PD1-ss-Gluc Assay. The series is classed as cell-based. As to conditions: 24 hr Dox induction; 293FRT/TO cells; read-out: 24 hr Dox Inducible PD1ssGluc 293FRT/TO: Mean IC50. The method, boiled down:
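Flp-In 293 T-REx cells stably carrying a doxycycline-inducible Gaussia luciferase fused to the PD1 signal sequence plus 10 aa were plated the day before. Compound dilutions in DMSO/media containing doxycycline were then added and incubated at 37 °C, 5% CO2. Data for undefined stereochemistry refer to stereoisomer mixtures.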

Series [2] deals with TNFα-FL/Gaussia Luciferase. The series is described as follows: Dox Induced TNFα-FL-Gluc Assay. The series is classed as cell-based. The note with it: for IC50: 24 hr Dox induction, 293FRT/TO cells, read-out: 24 hr Dox Inducible TNFaFLGluc 293FRT/TO: Mean IC50; for 24 hr Dox Inducible TNFaFLGluc 293FRT/TO: TNF/PD1: ratio of TNFaFLGluc IC50 to PD1ssGluc IC50. The method, boiled down:
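Stereoisomer mixtures were tested where stereochemistry is not drawn. Induction used doxycycline added together with compound dilutions in DMSO/media to Flp-In 293 T-REx cells carrying a T-REx-regulated TNFα (aa 1-233)-Gaussia luciferase construct, then incubated at 37 °C, 5% CO2.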

Series [3] concerns HER3-ss+4aa/Gaussia Luciferase. In words: Dox-Induced Her3-ss-Gluc Assay. The series is classed as cell-based. As to conditions: 24 hr Dox induction; 293FRT/TO cells; read-out: 24 hr Dox Inducible Her3(ss + 4)Gluc 293FRT/TO: Mean IC50. The method, boiled down:
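Cells were seeded a day ahead, then given compound diluted in DMSO/media with doxycycline to induce expression of the HER3 signal sequence (+4 aa)–Gaussia luciferase fusion. Incubation was at 37° C., 5% CO2, in a stable Flp-In 293 T-REx line.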

In series [4] the test system is IL-2-FL/Gaussia Luciferase. In words: Dox Induced IL2-FL-Gluc Assay. As to conditions: for IC50: 24 hr Dox induction, 293FRT/TO cells, read-out: 24 hr Dox Inducible IL2FLGluc 293FRT/TO: Mean IC50; for 24 hr Dox Inducible IL2FLGluc 293FRT/TO: IL2/PD1: ratio of IL2FLGluc IC50 to PD1ssGluc IC50. The series is classed as cell-based. The method in brief: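 Cells are plated one day ahead, then receive compound dilutions in DMSO/media with doxycycline and incubate at 37° C, 5% CO2. They are Flp-In 293 T-REx cells expressing a full-length IL-2 (amino acids 1-153)–Gaussia luciferase fusion under T-REx control.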

In series [5] the test system is multiple myeloma cell line NCI-H929. In words: H929 Cell Viability Assay. It counts as cell-based, human. As to conditions: Homo sapiens, NCI-H929, 48 h, NCI-H929 cells, Celltiter-Glo. The method in brief:
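Luminescent ATP detection (CellTiter-Glo) after 48 hours of compound exposure measures viability. Cells were plated in RPMI 1640 containing 10% fetal bovine serum and kept at 37° C under 5% CO2.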
(In ATP-based viability assays light output follows the ATP content of the culture.)

The test system of series [6] is multiple myeloma cell line U266B1. In words: U266 Cell Viability Assay. It counts as cell-based, human. As to conditions: Homo sapiens, U-266, 48 h, U266B1 cells, Celltiter-Glo. The method, boiled down: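 Steps: culture in RPMI 1640 plus 10% FBS and 2 mM glutamine; plate and add compound dilutions; incubate 48 hours at 37° C., 5% CO2; add CellTiter-Glo and quantify luciferase signal.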

A short description of series [7]: Liver Microsome Stability Assay (rat). The note with it: rat liver microsomes, with NADPH, 1.0 uM compound.
Protocol: (§1) Stability of a compound was assessed in the presence of liver microsomes from various sources—mouse, rat, monkey and human liver microsomes. 1.0 uM compound, 0.4% DMSO in 0.1 M Potassium Phosphate with 1.0 mg/mL liver microsomes, were incubated at 37° C. with or without 1 mM NADPH. The samples were quenched at 0, and 30 minutes.
The nature of series [8]: Liver Microsome Stability Assay (mouse). As to conditions: mouse liver microsomes, with NADPH, 1.0 uM compound. On the technique in general: Microsomes from liver hold many membrane-bound enzymes, among them those of drug oxidation.
Protocol: as §1
A short description of series [9]: Liver Microsome Stability Assay (human). As to conditions: human liver microsomes, with NADPH, 1.0 uM compound.
Protocol: as §1
Series [10] in a line: Liver Microsome Stability Assay (monkey). The note with it: monkey liver microsomes, with NADPH, 1.0 uM compound.
Protocol: as §1

Structures are written as SMILES.

The EC50 is the concentration needed to bring the measured effect to its halfway point. For `C[C@H](N)c1ccc(N2CCC[C@@H]2c2csc(NC(=O)c3cccn3Cc3ccnc(F)c3)n2)cc1` [Compound A74, N-(4-((R)-1-(4-((S)-1-aminoethyl)phenyl)pyrrolidin-2-yl)thiazol-2-yl)-1-((2-fluoropyridin-4-yl)methyl)-1H-pyrrole-2-carboxamide], the IC50 came out at 118 nM in series [1], 2800 nM in [2], 232 nM in series [3] and 367 nM in series [4]. Besides, in series [2], the “24 hr Dox Inducible TNFaFLGluc 293FRT/TO: TNF/PD1” value came out at 23.7. Besides, in [4], the “24 hr Dox Inducible IL2FLGluc 293FRT/TO: IL2/PD1” value was 3.1. Also, the results for the EC50 in [5] and in [6] were 3870 nM and 6130 nM, respectively. Further, in [7], the “Liver Microsome Stability (Multiple Species): Rat - % Remaining after 30 min w/NADPH” value amounted to 98.3%. Besides, in series [8], the “Liver Microsome Stability (Multiple Species): Mouse - % Remaining after 30 min w/NADPH” value was determined as 94.3%. In [9], the “Liver Microsome Stability (Multiple Species): Human - % Remaining after 30 min w/NADPH” value came to 38.6%. The “Liver Microsome Stability (Multiple Species): Monkey - % Remaining after 30 min w/NADPH” value in [10] came to 38.5%.

As to `O=C1CCc2cc(N3CCC[C@@H]3c3csc(NC(=O)c4cccn4Cc4ccncc4)n3)ccc2N1` [Compound A75, (R)-N-(4-(1-(2-oxo-1,2,3,4-tetrahydroquinolin-6-yl)pyrrolidin-2-yl)thiazol-2-yl)-1-(pyridin-4-ylmethyl)-1H-pyrrole-2-carboxamide], the IC50 in series [1] was 2.5 nM; in [2], 71 nM; in [3], 0.6 nM; in series [4], 8.11 nM. For the same compound, in [2], the “24 hr Dox Inducible TNFaFLGluc 293FRT/TO: TNF/PD1” value is 28.4. Moreover, the “24 hr Dox Inducible IL2FLGluc 293FRT/TO: IL2/PD1” value in [4] came out at 3.2. The EC50 in series [5] is 251 nM; in series [6], over 25000 nM. Further, the “Liver Microsome Stability (Multiple Species): Rat - % Remaining after 30 min w/NADPH” value in series [7] is reported as 0.05%. Also, the “Liver Microsome Stability (Multiple Species): Mouse - % Remaining after 30 min w/NADPH” value in series [8] is recorded as 3.74%. Also, the “Liver Microsome Stability (Multiple Species): Human - % Remaining after 30 min w/NADPH” value in series [9] stood at 6.4%. In addition, the “Liver Microsome Stability (Multiple Species): Monkey - % Remaining after 30 min w/NADPH” value in series [10] is on record as 0.87%.

For the compound `CN(C)c1cccc(-c2csc(NC(=O)c3cccn3Cc3ccncc3)n2)c1` [Compound A76, N-(4-(3-(dimethylamino)phenyl)thiazol-2-yl)-1-(pyridin-4-ylmethyl)-1H-pyrrole-2-carboxamide], the IC50 in [1] is 292 nM; in series [2], 6660 nM; in series [3] it was 830 nM; in series [4], 1510 nM. Besides, the “24 hr Dox Inducible TNFaFLGluc 293FRT/TO: TNF/PD1” value in [2] is 22.9. Moreover, in series [4], the “24 hr Dox Inducible IL2FLGluc 293FRT/TO: IL2/PD1” value came to 5.2. Also, the EC50 in [5] is 22400 nM; in series [6], over 25000 nM. Further, the “Liver Microsome Stability (Multiple Species): Rat - % Remaining after 30 min w/NADPH” value in series [7] is listed as 4.99%. Further, in [8], the “Liver Microsome Stability (Multiple Species): Mouse - % Remaining after 30 min w/NADPH” value was determined as 11%. For the same compound, the “Liver Microsome Stability (Multiple Species): Human - % Remaining after 30 min w/NADPH” value in series [9] came to 2.44%. In [10], the “Liver Microsome Stability (Multiple Species): Monkey - % Remaining after 30 min w/NADPH” value amounted to 1.43%.

Consider `CCc1ccc(N2CCC[C@@H]2c2csc(NC(=O)c3cccn3Cc3ccnc(F)c3)n2)cc1` [Compound A77, (R)-N-(4-(1-(4-ethylphenyl)pyrrolidin-2-yl)thiazol-2-yl)-1-((2-fluoropyridin-4-yl)methyl)-1H-pyrrole-2-carboxamide], for which the IC50 came to 1.84 nM in series [1], 19.1 nM in [2], 3.62 nM in series [3] and 3.22 nM in series [4]. For the same compound, the “24 hr Dox Inducible TNFaFLGluc 293FRT/TO: TNF/PD1” value in [2] was 10.4. The “24 hr Dox Inducible IL2FLGluc 293FRT/TO: IL2/PD1” value in series [4] was 1.8. In addition, the EC50 was 60.1 nM in [5] and over 25000 nM in series [6]. For the same compound, in series [7], the “Liver Microsome Stability (Multiple Species): Rat - % Remaining after 30 min w/NADPH” value is on record as 38.1%. Further, the “Liver Microsome Stability (Multiple Species): Mouse - % Remaining after 30 min w/NADPH” value in [8] was 79.6%. In series [9], the “Liver Microsome Stability (Multiple Species): Human - % Remaining after 30 min w/NADPH” value worked out at 72.8%. Also, the “Liver Microsome Stability (Multiple Species): Monkey - % Remaining after 30 min w/NADPH” value in [10] was 22.4%.

Take `O=C(Nc1nc([C@H]2CCCN2c2ccc(CCO)cc2)cs1)c1cccn1Cc1ccnc(F)c1` [Compound A78, (R)-1-((2-fluoropyridin-4-yl)methyl)-N-(4-(1-(4-(2-hydroxyethyl)phenyl)pyrrolidin-2-yl)thiazol-2-yl)-1H-pyrrole-2-carboxamide]: the IC50 in series [1] came to 13.2 nM; in series [2], 159 nM; in series [3] it was 27.7 nM; in [4] it was 30.1 nM. The “24 hr Dox Inducible TNFaFLGluc 293FRT/TO: TNF/PD1” value in [2] is 12. For the same compound, the “24 hr Dox Inducible IL2FLGluc 293FRT/TO: IL2/PD1” value in series [4] amounted to 2.3. Further, the EC50 in series [5] was 495 nM; in [6] it was over 25000 nM. Also, the “Liver Microsome Stability (Multiple Species): Rat - % Remaining after 30 min w/NADPH” value in series [7] is reported as 3.42%. In addition, in series [8], the “Liver Microsome Stability (Multiple Species): Mouse - % Remaining after 30 min w/NADPH” value amounted to 6.09%. Also, in series [9], the “Liver Microsome Stability (Multiple Species): Human - % Remaining after 30 min w/NADPH” value is listed as 6.01%. In addition, the “Liver Microsome Stability (Multiple Species): Monkey - % Remaining after 30 min w/NADPH” value in series [10] is reported as 3.13%.

For the compound `CC(=O)N1CCC(Oc2ccc(N3CCC[C@@H]3c3csc(NC(=O)c4cccn4Cc4ccnc(F)c4)n3)cc2)C1` (stereo partly drawn) [Compound A79, N-(4-((2R)-1-(4-((1-acetylpyrrolidin-3-yl)oxy)phenyl)pyrrolidin-2-yl)thiazol-2-yl)-1-((2-fluoropyridin-4-yl)methyl)-1H-pyrrole-2-carboxamide], the IC50 in series [1] is 10.8 nM; in series [2] it was 171 nM; in series [3] it was 23.2 nM; in series [4], 29.7 nM. For the same compound, the “24 hr Dox Inducible TNFaFLGluc 293FRT/TO: TNF/PD1” value in series [2] is 15.9. In addition, in series [4], the “24 hr Dox Inducible IL2FLGluc 293FRT/TO: IL2/PD1” value was found to be 2.8. In addition, the half-maximal effective concentration (EC50) in series [5] is 345 nM; in [6], over 25000 nM. The “Liver Microsome Stability (Multiple Species): Rat - % Remaining after 30 min w/NADPH” value in series [7] stood at 37.7%. Moreover, the “Liver Microsome Stability (Multiple Species): Mouse - % Remaining after 30 min w/NADPH” value in [8] was 5.88%. In addition, the “Liver Microsome Stability (Multiple Species): Human - % Remaining after 30 min w/NADPH” value in series [9] worked out at 5.48%. Also, the “Liver Microsome Stability (Multiple Species): Monkey - % Remaining after 30 min w/NADPH” value in [10] stood at 0.78%.

In the case of `O=C(Nc1nc([C@H]2CCCN2c2ccc(OC3CCNC3)cc2)cs1)c1cccn1Cc1ccnc(F)c1` (stereo partly drawn) [Compound A80, 1-((2-fluoropyridin-4-yl)methyl)-N-(4-((2R)-1-(4-(pyrrolidin-3-yloxy)phenyl)pyrrolidin-2-yl)thiazol-2-yl)-1H-pyrrole-2-carboxamide], the IC50 in [1] was found to be 595 nM; in [2], 11400 nM; in series [3], 1070 nM; in series [4], 1840 nM. Besides, the “24 hr Dox Inducible TNFaFLGluc 293FRT/TO: TNF/PD1” value in series [2] amounted to 19.1. For the same compound, in [4], the “24 hr Dox Inducible IL2FLGluc 293FRT/TO: IL2/PD1” value was found to be 3.1. Also, the EC50 came to 5730 nM in series [5] and 7780 nM in series [6]. Besides, the “Liver Microsome Stability (Multiple Species): Rat - % Remaining after 30 min w/NADPH” value in series [7] is on record as 88.1%. For the same compound, the “Liver Microsome Stability (Multiple Species): Mouse - % Remaining after 30 min w/NADPH” value in series [8] was found to be 71.9%. Further, the “Liver Microsome Stability (Multiple Species): Human - % Remaining after 30 min w/NADPH” value in [9] came out at 51%. In addition, the “Liver Microsome Stability (Multiple Species): Monkey - % Remaining after 30 min w/NADPH” value in series [10] stood at 17.6%.

Values taken from US20230286973A1, “PROTEIN SECRETION INHIBITORS” (KEZAR LIFE SCIENCES, priority 2020, published 2023).
